The source of these data is patent publication US20060194740A1, “NOD1 as an anti-tumor agent” (priority 2005, published 2006).

Assay [1] has as its system MCF-7 cells. Briefly: Propidium iodide exclusion cell death assay, wild-type (parental/Blasto) MCF-7 cells. Type of assay: cell-based, human. The conditions noted are these: for sensitivity to cell death: parental versus C20 cells (data not shown). On the procedure: (§1) Cell viability assays. Propidium iodide exclusion assay: Cells were stimulated as indicated for 2 days. Subsequently, cells were harvested, washed twice in FACS buffer (PBS containing 1% FCS and 0.1% NaN3) and resuspended in propidium iodide (PI)—containing FACS buffer (4 ug/ml). The extent of cell death was analyzed with a FACSCalibur flow cytometer (Becton Dickinson, Mountain View, Calif.). DAPI staining: MCF-7 cells were plated in chamber slides, and stimulated for 2 days. Cells were washed with PBS and apoptotic nuclei were stained with 1 μg/ml DAPI (Sigma Chemical Co., St. Louis, Mo.). Cells were fixed in 4% paraformaldehyde and examined by fluorescence microscopy.
(§2) To further investigate the role of Nod1 in apoptosis, a variety of cell types were incubated with the Nod1 ligand, […] (γTriDAP), which specifically activates Nod1. The cell types tested included the parental MCF-7 cell line, the Nod1-deficient MCF-7C20 clone, and a cell line engineered to contain an additional human Nod1 allele (MCF-7Nod1) so that Nod1 was over-expressed. To determine whether the resistance of C20 cells to γTriDAP-induced apoptosis resulted from the absence of Nod1, human Nod1 was stably expressed in MCF-7 C20 cells to produce Nod1-sufficient C20 cells (C20/Nod1). As another control, the parental MCF-7 cell line was transfected with an empty retroviral vector to generate MCF-7 Blasto cells. Cells were treated with γTriDAP in the presence or absence of cycloheximide (CHX) and cell death was then determined by propidium iodide staining and flow cytometry.

In assay [2] the test system is MCF-7 C20 cells. The assay is described as follows: Propidium iodide exclusion cell death assay, Nod1-deficient MCF-7 C20 cells. Type of assay: cell-based, human. On the procedure:
as §1, with “Propidium iodide exclusion assay: Cells were stimulated as indicated for 2 days.” left out
as §2

Assay [3] deals with MCF-7C20 cells. Briefly: IL-8 production, MCF-7C20 cells. The class given is cell-based, human. The conditions noted are these: MCF-7C20 cells (data not shown).
Assay [4] has as its system JNK. The assay is described as follows: JNK phosphorylation in MCF-7 RIP2 transfectants. The conditions noted are these: γTriDAP with cycloheximide for 2 h in wild type RIP2 or RIP2 KD cells (FIG. 7C). The class given is cell-based, human. On the procedure: (§3) Western blot analysis and immunoprecipitation. Cells were washed extensively and lysed using lysis buffer containing 50 mM Hepes, 100 mM NaCl, 2 mM EDTA, 10% glycerol, 1% Nonidet P-40, 14 μM pepstatin A, 100 uM leupeptin, 3 mM benzamidine, 1 mM PMSF, 1 mM sodium pyrophosphate, 10 mM sodium orthovanadate, 100 U/ml aprotinin, and 100 mM sodium fluoride. After incubation for 30 min on ice, cell lysates were centrifuged (14000 rpm, 10 min, 4° C.) and the supernatants were recovered. For immunoprecipitation, cell lysates were mixed with 5 μg of antibody for 3 hour at 4° C. under constant agitation. Immune complexes were allowed to bind to 20 μl protein A-Sepharose beads overnight, beads were washed three times with lysis buffer. Immunoprecipitates were separated on SDS-PAGE and transferred to PVDF membranes.
The effect of RIP2 expression on γTriDAP-induced JNK phosphorylation was also examined (FIG. 7C).

Assay [5] relates to poly(ADP-ribose)polymerase (PARP) and capases 6, 7, 8 and 9. Briefly: Western blot of PARP and caspase cleavage in MCF-7 cells. The class given is cell-based, human. The conditions noted are these: 24 h (FIG. 3). The procedure:
as §3
Further confirmation that γTriDAP induces apoptosis was obtained using two broad spectrum caspase inhibitors, z-VAD-FMK and Boc-D-FMK. Both z-VAD-FMK and Boc-D-FMK abrogated γTriDAP-induced cell death (FIG. 2D).

In assay [6] the test system is MCF-7 C20/Nod1 cells. The assay is described as follows: Propidium iodide exclusion apoptosis assay, MCF-7 C20/Nod1 cells. The class given is cell-based, human. As to conditions: γTriDAP/CHX (FIG. 12A). On the procedure: as §1, §2
To determine whether the presence of estrogens modulates Nod1-induced apoptotic pathway, cells were cultured in medium containing charcoal-treated serum.

For assay [7], the system named is MCF7-C20Nod1 cells. Briefly: IL-8 production, MCF7-C20Nod1 cells. As to conditions: wild-type Nod1 expressed in MCF7-C20Nod1 cells (FIG. 5C). The class given is cell-based, human.
In assay [8] the test system is MCF-7 Nod1 cells. The assay is described as follows: Propidium iodide exclusion cell death assay, MCF-7 Nod1 cells over-expressing Nod1. The class given is cell-based, human. As to conditions: for effect on γTriDAP-induced apoptosis: inhibitor 100 uM, 30 min prior to γTriDAP/CHX for 48 h (FIG. 6A); for effect on γTriDAP-induced cell death: caspase inhibitor 50 uM, 30 min before γTriDAP/CHX for 48 h (FIG. 2D). On the procedure:
as §1, §2

Assay [9] concerns MCF-7 RIP2 KD cells. Briefly: Propidium iodide apoptosis assay, MCF-7 RIP2 KD cells. Type of assay: cell-based, human. As to conditions: cells expressing RIP2 KD; 20 μg/ml, CHX, 48 hr (FIG. 13A). On the procedure: as §1
Several RIP2 mutants were stably expressed in MCF-7 cells to evaluate the role of the RIP2 kinase activity in γTriDAP-induced apoptosis. Expression of RIP2 lacking its CARD domain completely abrogated Nod1-induced cell death (FIG. 7A). […] Cells expressing wild type RIP2 and RIP2 KD constructs were sensitive to lower concentrations of γTriDAP and died faster than cells expressing only Nod1 (FIG. 13C) or than parental MCF-7Blasto cells (data not shown).

Assay [10] concerns MCF-7 Nod2 cells. Briefly: IL-8 secretion ELISA, MCF-7 Nod2 cells. The class given is cell-based, human. The conditions noted are these: 24 h (FIG. 5C). The procedure: IL-8 ELISA. Concentrations of IL-8 in the culture supernatants of transfected HeLa cells were measured by ELISA using 96-well Immunlon plates (Dynatech Laboratories, Chantilly, Va.). ELISA was performed using the mAb MAB208 for capture and a biotinylated polyclonal rabbit anti-human IL-8 Ab (R&D Systems, Minneapolis, Minn.) followed by streptavidin HRP for detection.
(§4) Experiments were also performed to ascertain whether activation of Nod2 by its specific activator, muramyl dipeptide (MDP), would initiate apoptosis in parental MCF-7 cells or in MCF-7 cells over-expressing Nod2 (MCF-7 Nod2). Thus, γTriDAP or MDP were added to each of these lines and apoptosis (FIG. 5A) and IL-8 production (FIG. 5C) were measured. […] Expression of Nod1 and Nod2 in MCF-7 stable transfectants was confirmed by immunoblotting (FIG. 5B).
(ELISA stands for enzyme-linked immunosorbent assay.)

The test system of assay [11] is MCF-7 Nod2 cells. Briefly: Propidium iodide apoptosis assay, MCF-7 Nod2 cells. The conditions noted are these: MDP plus CHX, 48 h (FIG. 5A). Type of assay: cell-based, human. On the procedure:
as §1, §4

For assay [12], the target named is human Nod1 stably expressed in cell lines (human) (UniProt Q9Y239). The assay is described as follows: cell-based or functional assay.
Assay [13] has as its target endogenous NOD1 protein of parental MCF-7 cells (human) (UniProt Q9Y239). The assay is described as follows: cell-based or functional assay.
Assay [14] has as its target Myc-NOD1 (human) (UniProt Q9Y239). Briefly: cell-based or functional assay.
The test system of assay [15] is SK-BR3. Briefly: Apoptosis by PI staining, SK-BR3 cells stably expressing Nod1. Type of assay: cell-based, human. As to conditions: SKBR3 cells; αTriDAP substituted for γTriDAP, with TNFα and cycloheximide (FIG. 9B). On the procedure: as §1
To determine if Nod1-dependent apoptosis occurs in other human cell lines, a series of epithelial cell lines were examined where Nod1 was stably expressed to enhance sensitivity to activation of the Nod1 pathway. Cells were treated with TNFα (T) and γTriDAP (γ) in the presence or absence of CHX (C) and monitored for viability by PI staining as a measure of apoptosis (Table 1).

Assay [16] deals with MCF-7 C20 cells. The assay is described as follows: 3H-thymidine proliferation assay, MCF-7 C20 cells. The class given is cell-based, human. As to conditions: tamoxifen added in the culture medium (data not shown). On the procedure:
Retroviral transfections. The various genes used in this study were cloned into pMSCV-Blasto, pBabe-Puro or pBabe-Neo retroviral vectors. MCF-7 cells were stably transfected using available procedures. Briefly, amphotropic 293 cells were transfected with retroviral vectors encoding selected Nod1, Nod2 and other proteins. Twenty-four hours post-transfection, cells were incubated at 32° C. overnight to produce viral particles. Target cells were infected the next day with virus-containing 293 cell supernatants containing recombinant retroviral particles. Cells were selected with 10 μg/ml blasticidin S (Calbiochem EMD Biosciences Inc., San Diego, Calif.), 500 μg/ml […] (Invitrogen, Carlsbad, Calif.) or 5 μg/ml puromycin (Calbiochem). The expression of all constructs was confirmed by Western blot analysis. To determine the effects of 17β-estradiol (Calbiochem), cells were cultured in phenol red-free DMEM supplemented with […]. Cells were seeded in 96 well plates with various concentration of 17β-estradiol (E2) for 24 h and pulsed with ^3H-thymidine (1 μCi/well, MP Biomedicals, Irvine, Calif.). Cells were harvested on glass fiber filters and radioactivity measured by liquid scintillation. […]

Setting [17] is: agent alone, wild type cells (FIG. 2A).

Starred links: 1 amine or outer side, 2 acyl side, 3 side chain; linkers in the order of their positions; H or OH if unused. Non-standard residues stand in square brackets, D forms with d. Residues, ends and D or L forms follow the SMILES beside them. No end group written: not given here. *: point of attachment. mesoDAP = meso-diaminopimelic acid, O=C(O)[C@@H](CCC[C@H](N[*:1])C(=O)[*:2])N[*:3]; Diaminopimelic acid = diaminopimelic acid; Cbz = O=C(OCc1ccccc1)*; CH2F = FC*

Turning to `C[C@@H]1C[C@@H]([C@H](O)CC2CC(=O)NC(=O)C2)C(=O)[C@@H](C)C1` [cycloheximide], the cell death entry in assay [1] (setting [17]) is reported as “No cell death”.
For the compound “D-Ala-L-Glu-Diaminopimelic acid ([dA]-Glu-[Diaminopimelic acid]; also: Glu gamma-carboxyl linked to DAP (γTriDAP))”, the apoptosis entry in assay [2] (γTriDAP plus cycloheximide, MCF-7C20 without Nod1 expression) is “totally resistant”. In addition, the “γTriDAP-induced IL-8 production” value in assay [3] is given as “inhibited”; in assay [7] it was “restored”. Besides, the “phosphorylation of JNK” value in [4] is reported as “induced phosphorylation of JNK”. Besides, the “proteolytic cleavage of PARP and capases 6, 7, 8 and 9” value in assay [5] is “resulted in proteolytic cleavage”. Also, the γTriDAP-induced apoptosis in assay [6] (with steroids) was 80%; in assay [6] (without steroids (charcoal-treated serum)), 10%. Besides, the cell death result in [1] (setting [17]) was “No cell death”; in [1] (γTriDAP in the presence of cycloheximide, wild-type MCF-7, PI staining, flow cytometry (FIG. 2A)) it was “about 25%”; in assay [8] (combination of cycloheximide and γTriDAP, 48 h treatment, MCF-7Nod1 cells), around 60%.
In the case of IETD, in assay [8], the “effect on γTriDAP-induced apoptosis” value was “marked inhibitory effects”.
For `CC[C@@]1(O)C(=O)OCc2c1cc1n(c2=O)Cc2cc3ccccc3nc2-1` [camptothecin], the “sensitivity to cell death” value in assay [1] was “equally sensitive”.
As to `CC(=O)N[C@H]1C(O)O[C@H](CO)[C@@H](O)[C@@H]1O[C@H](C)C(=O)N[C@@H](C)C(=O)N[C@H](CCC(=O)O)C(N)=O` (mixture of isomers) [MDP, muramyl dipeptide], the apoptosis entry is reported as “effective at inducing high levels of apoptosis” in [9] and “did not undergo increased apoptosis” in [11]. Moreover, in assay [10], the IL-8 secretion entry is “did result in IL-8 secretion”.
In [12], “D-Ala-L-Glu-Diaminopimelic acid (γTriDAP) (peptide)” registered a γTriDAP-induced apoptosis; C20/Nod1 cells cultured with steroids of 80% and a γTriDAP-induced apoptosis; C20/Nod1 cells cultured without steroids of 10%. Further, the cell death by propidium iodide staining and flow cytometry; wild-type MCF-7 cells, γTriDAP with cycloheximide in [13] was determined as 25%. In [14], this compound returned a cell death by propidium iodide staining and flow cytometry; MCF-7Nod1 cells, γTriDAP with cycloheximide, 48 h of 60%.
In the case of `COc1cccc2c1C(=O)c1c(O)c3c(c(O)c1C2=O)C[C@@](O)(C(=O)CO)C[C@@H]3O[C@H]1C[C@H](N)[C@H](O)[C@H](C)O1` [doxirubicin], the “sensitivity to cell death” value in [1] is recorded as “equally sensitive”.
In the case of “αTriDAP: inactive control tri-peptide where mesoDAP was bound to Glu in the a position rather than in the γ position (Ala-Glu-[mesoDAP]; not fully specified (residue 1); also: DAP bound to Glu alpha-carboxyl (αTriDAP))”, the “proteolytic cleavage of PARP and capases 6, 7, 8 and 9” value in assay [5] is reported as “not”. Further, in [1] (incubated with MCF-7 cells in the presence of cycloheximide (FIG. 2A)), the cell death result was “did not induce cell death”. In addition, the apoptosis result in assay [15] is “reduced apoptosis”.
For the compound TNFα, in assay [2] (MCF-7 C20 versus parent MCF-7 cells, TNF 0-40 ng/ml, 20 h (FIG. 1C)), the TNFα-induced apoptosis entry is given as “significantly more resistant”.
For `COC(=O)CC(NC(=O)OC(C)(C)C)C(=O)CF` [Boc-D-FMK], the “effect on γTriDAP-induced cell death” value in assay [8] is recorded as “abrogated”.
Consider `COC(=O)C[C@H](NC(=O)[C@H](C)NC(=O)[C@@H](NC(=O)OCc1ccccc1)C(C)C)C(=O)CF` [z-VAD-FMK] (Cbz-Val-Ala-Asp(OMe)-CH2F), for which, in assay [8], the “effect on γTriDAP-induced cell death” value was “abrogated” and the “effect on γTriDAP-induced apoptosis” value is “blocked γTriDAP-induced apoptosis nearly completely”.
`CC/C(=C(\c1ccccc1)c1ccc(OCCN(C)C)cc1)c1ccccc1` [tamoxifen, reference compound]: in [16], the “effect on estrogen-induced proliferation” value is “blocked”. In addition, in assay [1] (tamoxifen prior to γTriDAP/CHX, MCF-7 cell lines (FIG. 12B)), the “effect on γTriDAP-induced cell death” value is listed as “partially blocked”.
